Laboratory results published in patent US20150313928A1, “NEW APPLICATION OF CATALPOL” (SUZHOU YOUSEEN NEW PHARMACY DEVELOPMENT CO., LTD., priority 2012, published 2015).

What was measured:
[1] = tested on: mice in the hyperthyroidism model group; assay: Measurement of mice weight change; assay type: in vivo, Kunming mice; details: for BW2 − BW1: body weight difference; for BW2 − BW1 / BW2: 20 days; for body weight increase: in words, compared with the model group, catalpol groups, methimazole 7.5 mg/kg; for BW2: post-treatment body weight, levothyroxine sodium 350 ug/kg s.c. daily; for BW1: pre-treatment body weight
Method: (§1) The successfully modeled mice are randomized into 5 groups (10 mice per group), that is, the hyperthyroidism model group, the catalpol low dosage group, the catalpol medium group, the catalpol high dosage group, and the methimazole group, plus the blank group (10 mice).
(§2) The catalpol low dosage group is administered 30mg/kg catalpol, the catalpol medium dosage group 60 mg/kg, the catalpol high group 90 mg/kg and the methimazole group 7.5 mg/kg methimazole, all by gastric infusion, while the blank group and the hyperthyroidism group are administered equal amount of distilled water, once per day, for 20 consecutive days. With the exception of the blank group, each mouse in each group continues to be administered 350 ug/kg levothyroxine sodium by means of subcutaneous injection each day.
A mouse is suspended of food without suspension of water for 12 hours starting at 8 o'clock one day prior to the first medication, and all the mice are taken of their body weight (BW) the next day, that is, the pre-treatment body weight (BW1); the mouse is suspended of food without suspension of water for 12 hours starting at 8 o'clock of the day of the last medication, its body weight (BW) is taken the next day, that is, the post-treatment body weight (BW2); the difference of the pre-treatment body weight and the post-treatment body weight is calculated to compare the change of the body weight of the mice among each group.

[2] = tested on: mice in the hyperthyroidism model group; assay: Measurement of the level of thyroid hormone of serum (radioimmunoassay); assay type: in vivo, Kunming mice; details: for T3 level in the serum / FT3 level in the serum / FT4 level in the serum / T4 level in the serum: in words, compared with the model group; for T3 level in the serum: catalpol 30, 60, 90 mg/kg groups, methimazole 7.5 mg/kg, P<0.05; for FT3 level in the serum: catalpol low P<0.01, medium, high and methimazole P<0.05; for FT4 level in the serum: only catalpol low dosage significant (P<0.05); for T4 level in the serum: only methimazole difference significant (P<0.05); for FT3 / FT4 / T3 / T4: serum, 20 days
Method: as §1, §2
A mouse is suspended of food without suspension of water for 12 hours subsequent to the last medication, and blood is taken from its eye ball, put in centrifugation for 15 minutes at 3500 r/min, serum is pumped out for measurement of T3, T4, FT3, and FT4 by means of radioimmunoassay. For detailed operations, see the instruction manual.

[3] = tested on: mice in the hyperthyroidism model group; assay: Measurement of heart indexes of the mice; assay type: in vivo, Kunming mice; design: HWI / LVWI: unit not given here; details: for HWI: heart weight index = HW/BW; for HWI / LVWI: 20 days; for heart weight index / left ventricular index: in words, compared with the model group; for heart weight index: catalpol medium and high dosage and methimazole significant; for left ventricular index: catalpol medium and high dosage significant (P<0.01); for LVWI: left ventricular weight index = LVW/BW
Method: as §1, §2
A mouse is sacrificed its heart instantly taken out for measurement of its heart weight (HW) and (left ventricular weight (LVW). Heart weight index (HWI=HW/BW) and left ventricular weight index (LVWI=LVW/BW) is calculated at conclusion the experiment.

[4] = tested on: mice in the hyperthyroidism model group; assay: Measurement of heart rate of the mice (electrocardiogram); assay type: in vivo, Kunming mice
Method: The successfully modeled mice are randomized into 5 groups (10 mice per group), that is, the hyperthyroidism model group, the catalpol low dosage group, the catalpol medium group, the catalpol high dosage group, and the methimazole group, plus the blank group (10 mice). The catalpol low dosage group is administered 30mg/kg catalpol, the catalpol medium dosage group 60 mg/kg, the catalpol high group 90 mg/kg and the methimazole group 7.5 mg/kg methimazole, all by gastric infusion, while the blank group and the hyperthyroidism group are administered equal amount of distilled water, once per day, for 20 consecutive days. With the exception of the blank group, each mouse in each group continues to be administered 350 ug/kg levothyroxine sodium by means of subcutaneous injection each day. All the mice are suspended of food without suspension of water for 12 hours one day prior to the last medication and heart rate is measured 3 hours later. Heart rate (HR) is calculated via the electrocardiogram, statistics is then conducted, and differences are compared.

[5] = tested on: mice in the hyperthyroidism model group; assay: Measurement of the oxygen consumption of the mice; assay type: in vivo, Kunming mice; details: for Decrease in oxygen content: measured two days prior to the last medication, 21% minus residual oxygen; for oxygen consumption: in words, compared with the model group, catalpol low (30 mg/kg) and high (90 mg/kg) dosage groups, methimazole 7.5 mg/kg
Method: as §1, §2
Oxygen consumption is measured two days prior to the last medication. The specific method is: take a model CY-3 digital oxygen meter and install therein an oxygen electrode. Connect, perform zero adjustment, and repeat until the instrument is stable for use. Take a 500 ml bottle, fix its outward connecting pipe with a rubber cover, seal with Vaseline. The rubber cover is connected via a tee, and a shift in the tee is selectable for connection or disconnection with outer space. A mouse is placed inside the bottle, and the mouth of the bottle is instantly covered with a wood plug to shut off air from the inner flask. The filtering flask is horizontally placed on the experiment table, and timing of 20 minutes After 20 minute, 10 ml air from the bottle was taken out by a injector and rapidly injected into a connector of the CY-3 type digital oxygen analyzer with the oxygen analyzer indicating oxygen content of the pumped in air. The data, when stable, is recorded as the residual oxygen value, then the oxygen consumption (20 min, 10 ml)=21%—residual oxygen value (%). (21% oxygen in air).

[6] = tested on: mice in the hyperthyroidism model group; assay: Observation of appearance and behavior of the mice; assay type: in vivo, Kunming mice; details: in words, as compared with the model group; daily observation
Method: The successfully modeled mice are randomized into 5 groups (10 mice per group), that is, the hyperthyroidism model group, the catalpol low dosage group, the catalpol medium group, the catalpol high dosage group, and the methimazole group, plus the blank group (10 mice). The catalpol low dosage group is administered 30mg/kg catalpol, the catalpol medium dosage group 60 mg/kg, the catalpol high group 90 mg/kg and the methimazole group 7.5 mg/kg methimazole, all by gastric infusion, while the blank group and the hyperthyroidism group are administered equal amount of distilled water, once per day, for 20 consecutive days. With the exception of the blank group, each mouse in each group continues to be administered 350 ug/kg levothyroxine sodium by means of subcutaneous injection each day. Animals were observed and recorded daily for their general status, including mental status, color and hair change, appearance and behavior. In addition, every two days, record is taken of their food intake.

Kunming mice = assay: Animal model preparation: injection of levothyroxine sodium (heart rate, serum T3/T4, heart weight index); assay type: in vivo; details: levothyroxine sodium 350 μg/kg subcutaneous injection, model group
Method: The animals are placed indoor for milieu adaptation 2 days prior to the experiment. 20 Kunming mice are randomly selected and put in the blank group, administered normal saline by subcutaneous injection, while the other mice are administered levothyroxine sodium 350 μg/kg by subcutaneous injection, with a daily dosage of 10 ml/kg, for 7 consecutive days.
After the third hour at the sixth day of medication, 10 mice (half male and half female) are randomly selected respectively from the blank group and the model group for measurement of heart rate. Under anesthesia, the mice are taken electrocardiogram for calculation of their heart rate. Statistical analysis is then conducted for comparison of differences.
In the case of substantial acceleration of its heart rate, a mouse is suspended of food without suspension of water for 12 hours starting at 8 o'clock of the last day (the seventh day) of medication. Each mouse in each group is taken of its weight at 8 o'clock the next morning. Blood is taken from its eye ball and subsequent to coagulation, put in centrifugation for 15 minutes at 3500 r/min, for measurement of T3 and T4 by means of radioimmunoas say. Each mouse is sacrificed and its heart is taken out for measurement of its heart weight and left ventricular weight. At conclusion of the experiment, the heart weight index and left ventricular weight index is calculated. [Heart weight index HWI=heart weight (HW)/body weight (BW); left ventricular weight index LVWI=left ventricular weight (LVW)/ body weight (BW)]
If the levels of the above indexes are substantially elevated, the model is regarded as successful.

[7] = catalpol 30 mg/kg gastric infusion once per day
[8] = catalpol 60 mg/kg gastric infusion once per day
[9] = catalpol 90 mg/kg gastric infusion once per day
[10] = in words, compared with the model group, catalpol 30, 60, 90 mg/kg groups, methimazole 7.5 mg/kg
[11] = methimazole 7.5 mg/kg gastric infusion once per day

With `OC[C@H]1O[C@@H](O[C@@H]2OC=C[C@H]3[C@H](O)[C@@H]4O[C@]4(CO)[C@@H]23)[C@H](O)[C@@H](O)[C@@H]1O` [Catalpol] the “BW2 − BW1” value [1, 7] was 9.00 g, the “BW2 − BW1” value [1, 8] was 10.10 g and the “BW2 − BW1” value [1, 9] was 10.15 g. For the same compound, the body weight increase [1] was “more body weight increase to some extent”, the BW2 [1, 7] was 36.40 g and the BW2 [1, 8] was 37.80 g. The BW2 [1, 9] was 37.75 g, the BW1 ([1]; catalpol 30 mg/kg group) was 27.40 g and the BW1 ([1]; catalpol 60 mg/kg group) was 27.70 g. For the same compound, the BW1 ([1]; catalpol 90 mg/kg group) was 27.60 g, the “T3 level in the serum” value [2] was “decreased T3 level in the serum to some extent” and the “FT3 level in the serum” value [2] was “decreased FT3 level in the serum to some extent”. For the same compound, the “FT4 level in the serum” value [2] was “decreased FT4 level in the serum to some extent”, the “T4 level in the serum” value [2] was “decreased T4 level in the serum to some extent” and the FT3 [2, 7] was 7.49 ng/mL. It also gave an FT4 [2, 7] of 22.87 ng/mL, a T3 [2, 7] of 3.84 ng/mL and a T4 [2, 7] of 181.02 ng/mL. For the same compound, the FT3 [2, 8] was 8.22 ng/mL, the FT4 [2, 8] was 23.77 ng/mL and the T3 [2, 8] was 3.52 ng/mL. For the same compound, the T4 [2, 8] was 179.90 ng/mL, the FT3 [2, 9] was 7.56 ng/mL and the FT4 [2, 9] was 24.02 ng/mL. It also gave a T3 [2, 9] of 3.50 ng/mL, a T4 [2, 9] of 178.50 ng/mL and an HWI [3, 7] of 5.912. For the same compound, the HWI [3, 8] was 5.650, the HWI [3, 9] was 5.58 and the heart weight index [3] was “decreased heart weight index to some extent”. The left ventricular index [3] was “decreased left ventricular index to some extent”, the LVWI [3, 7] was 1.786 and the LVWI [3, 8] was 1.625. For the same compound, the LVWI [3, 9] was 1.582, the Heart rate ([4]; catalpol 30 mg/kg gastric infusion once per day, 20 days, levothyroxine sodium 350 ug/kg s.c. daily) was 507.56 times/min and the Heart rate ([4]; catalpol 60 mg/kg gastric infusion once per day, 20 days, levothyroxine sodium 350 ug/kg s.c. daily) was 538.75 times/min. The Heart rate ([4]; catalpol 90 mg/kg gastric infusion once per day, 20 days, levothyroxine sodium 350 ug/kg s.c. daily) was 529.63 times/min, the Heart rate [4, 10] was “decreased heart rate to some extent” and the “Decrease in oxygen content” value ([5]; catalpol 30.0 mg/kg gastric infusion once per day) was 8.88 %, 20 min. For the same compound, the “Decrease in oxygen content” value ([5]; catalpol 60.0 mg/kg gastric infusion once per day) was 9.03 %, 20 min, the “Decrease in oxygen content” value [5, 9] was 8.81 %, 20 min and the oxygen consumption [5] was “significantly decreased oxygen consumption”. For the same compound, the “appearance and behavior of the mice” value [6] was “quieter and have reduced symptoms of dysphoria, excitability, and drier and darker hair”.

With `N[C@@H](Cc1cc(I)c(Oc2cc(I)c(O)c(I)c2)c(I)c1)C(=O)O` [levothyroxine sodium] the HWI (Kunming mice; heart weight index = HW/BW, 7 day) was 5.642 mg/g, the LVWI (Kunming mice; left ventricular weight index = LVW/BW, 7 day) was 3.735 mg/g and the HR (Kunming mice; 6 day, mean ± S) was 674.42 times/min. It also gave a T3 (Kunming mice; serum, 7 day, mean ± S) of 2.89 ng/mL and a T4 (Kunming mice; serum, 7 day, mean ± S) of 311.43 ng/mL.

In the case of `Cn1cc[nH]c1=S` [methimazole, reference compound], the “BW2 − BW1” value [1, 11] is reported as 9.00 g, the body weight increase [1] is reported as “more body weight increase to some extent” and the BW2 [1, 11] is reported as 36.30 g. For the same compound, the BW1 ([1]; methimazole 7.5 mg/kg group) was 27.30 g, the “T3 level in the serum” value [2] was “decreased T3 level in the serum to some extent” and the “FT3 level in the serum” value [2] was “decreased FT3 level in the serum to some extent”. The “FT4 level in the serum” value [2] was “decreased FT4 level in the serum to some extent”, the “T4 level in the serum” value [2] was “decreased T4 level in the serum to some extent” and the FT3 [2, 11] was 8.80 ng/mL. It also gave an FT4 [2, 11] of 26.85 ng/mL, a T3 [2, 11] of 3.64 ng/mL and a T4 [2, 11] of 145.61 ng/mL. For the same compound, the HWI [3, 11] was 5.784, the heart weight index [3] was “decreased heart weight index to some extent” and the left ventricular index [3] was “decreased left ventricular index to some extent”. The LVWI [3, 11] was 1.560, the Heart rate [4, 10] was “decreased heart rate to some extent” and the Heart rate ([4]; methimazole 7.5 mg/kg gastric infusion once per day, 20 days, levothyroxine sodium 350 ug/kg s.c. daily) was 474.02 times/min. For the same compound, the oxygen consumption [5] was “significantly decreased oxygen consumption” and the “Decrease in oxygen content” value [5, 11] was 8.53 %, 20 min.
